# Test results reported in ChEMBL document CHEMBL3797140, “Acridin-3,6-dialkyldithiourea hydrochlorides as new photosensitizers for photodynamic therapy of mouse leukemia cells” (Bioorg Med Chem, 2016).
# Active and inactive are the calls of the source. The calls are words filed in the database; no cut-off is given here.
# How the values were obtained:
# [1] = Induction of ROS generation measured 2 mins after UV-A irradiation by spin trapping agent DMPO based EPR spectroscopy; format: physicochemical
# [2] = test system: L1210; test: Induction of apoptosis in mouse L1210 cells assessed as Bax level at 0.5 to 1 uM preincubated for 1 hr followed by 1.05 J/cm2 UV-A irradiation measured after 4 to 6 hrs by Western blot method; format: functional, cell-based
# [3] = test system: L1210; test: Induction of apoptosis in mouse L1210 cells at 0.5 uM preincubated for 1 hr followed by 1.05 J/cm2 UV-A irradiation measured after 5 hrs by Annexin Red based flow cytometry; format: functional
# [4] = Drug uptake in lysosome of mouse L1210 cells at 2 uM preincubated with 10.5 nM bafilomycin A1 followed by compound exposure for 1 hr followed by 1.05 J/cm2 UV-A irradiation by LysoTracker staining-based flow cytometry; format: ADME, cell-based; conditions: l1210, 1 h
# [5] = test system: L1210; test: Induction of cell cycle arrest in mouse L1210 cells assessed as accumulation at sub-G0 phase at 1 uM preincubated for 1 hr measured after 4 hrs by propidium iodide staining-based flow cytometry in absence of light (reference value: 16.6 +/- 0.4%); conditions: l1210, 4 h
# [6] = test system: L1210; test: Induction of apoptosis in mouse L1210 cells assessed as caspase 9 activation at 0.5 uM preincubated for 1 hr measured after 8 hrs by Western blot method in absence of light; format: cell-based; conditions: l1210, 8 h
# [7] = test system: L1210; test: Induction of cell cycle arrest in mouse L1210 cells assessed as accumulation at sub-G0 phase at 1 uM preincubated for 1 hr followed by 1.05 J/cm2 UV-A irradiation measured after 24 hrs by propidium iodide staining-based flow cytometry (reference value: 16.8 +/- 0.6%); format: functional
# [8] = test system: L1210; test: Phototoxicity in mouse L1210 cells at 1 uM preincubated for 1 hr followed by 1.05 J/cm2 UV-A irradiation measured after 24 hrs by lactate dehydrogenase leakage assay; format: functional, cell-based
# [9] = Drug uptake in nucleus of mouse L1210 cells at 2 uM preincubated for 1 hr followed by 1.05 J/cm2 UV-A irradiation by SytoRed staining-based flow cytometry; format: ADME, cell-based; conditions: l1210, 2 µM
# [10] = test system: L1210; test: Induction of apoptosis in mouse L1210 cells assessed as decrease in Bcl2 level at 0.5 to 1 uM preincubated for 1 hr followed by 1.05 J/cm2 UV-A irradiation measured after 4 to 6 hrs by Western blot method; format: functional, cell-based
# [11] = test system: L1210; test: Induction of apoptosis in mouse L1210 cells assessed as caspase 3 activation at 0.5 to 1 uM preincubated for 1 hr followed by 1.05 J/cm2 UV-A irradiation measured after 4 to 6 hrs by Western blot method; format: functional, cell-based
# [12] = test system: L1210; test: Induction of cytomorphological changes in mouse L1210 cells at 0.5 uM preincubated for 1 hr measured after 6 to 24 hrs by Hoechst 33342 staining-based fluorescence microscopy in the absence of light; format: cell-based; conditions: l1210, 0.5 µM
# [13] = test system: L1210; test: Phototoxicity against mouse L1210 cells assessed as cell viability preincubated with 0.5 nM bafilomycin A1 followed by compound exposure for 1 hr followed by 1.05 J/cm2 UV-A irradiation measured after 48 hrs by MTT assay in presence of pepstatin A; format: functional, cell-based
# [14] = test system: Calf thymus DNA; test: Binding affinity to calf thymus DNA by UV-visible spectrophotometry; format: nucleic-acid assay; conditions: Bos taurus
# [15] = Drug uptake in lysosome of mouse L1210 cells at 2 uM preincubated with […] followed by compound exposure for 1 hr followed by 1.05 J/cm2 UV-A irradiation by LysoTracker staining-based flow cytometry; format: ADME, cell-based; conditions: l1210, 1 h
# [16] = test system: L1210; test: […] in mouse L1210 cells at 1 uM preincubated for 1 hr followed by 1.05 J/cm2 UV-A irradiation measured after 24 hrs by lactate dehydrogenase leakage assay; format: cell-based; conditions: l1210, 24 h
# [17] = test system: L1210; test: Induction of cell cycle arrest in mouse L1210 cells assessed as accumulation at sub-G0 phase at 0.5 uM preincubated for 1 hr measured after 24 hrs by propidium iodide staining-based flow cytometry in absence of light (reference value: 16.6 +/- 0.4%); conditions: l1210, 24 h
# [18] = test system: L1210; test: Induction of ROS generation in mouse L1210 cells at 0.5 uM preincubated for 1 hr followed by 1.05 J/cm2 UV-A irradiation by fluorescence microscopy in presence of trolox; format: functional, cell-based
# [19] = test system: L1210; test: Induction of necrosis in mouse L1210 cells at 0.5 uM preincubated for 1 hr followed by 1.05 J/cm2 UV-A irradiation measured after 5 hrs by Annexin Red based flow cytometry; format: functional
# [20] = test system: L1210; test: Induction of apoptosis in mouse L1210 cells assessed as decrease in Bcl2 level at 0.5 uM preincubated for 1 hr measured after 8 hrs by Western blot method in absence of light; format: cell-based; conditions: l1210, 8 h
# [21] = test system: L1210; test: Phototoxicity against mouse L1210 cells assessed as cell viability preincubated for 1 hr followed by 1.05 J/cm2 UV-A irradiation measured after 48 hrs by MTT assay; format: functional, cell-based; conditions: L1210, light or radiation study
# [22] = test system: L1210; test: Phototoxicity against mouse L1210 cells assessed as cell viability preincubated for 1 hr followed by 1.05 J/cm2 UV-A irradiation measured after 48 hrs by MTT assay in presence of pepstatin A; format: functional, cell-based
# [23] = test system: L1210; test: Induction of cell cycle arrest in mouse L1210 cells assessed as accumulation at sub-G0 phase at 0.5 uM preincubated for 1 hr followed by 1.05 J/cm2 UV-A irradiation measured after 4 hrs by propidium iodide staining-based flow cytometry (reference value: 16.8 +/- 0.6%); format: functional
# [24] = test system: L1210; test: Phototoxicity against mouse L1210 cells assessed as cell viability preincubated with 10 nM chloroquine followed by compound exposure for 1 hr followed by 1.05 J/cm2 UV-A irradiation measured after 48 hrs by MTT assay in presence of pepstatin A; format: functional, cell-based
# [25] = test system: L1210; test: Induction of apoptosis in mouse L1210 cells assessed as caspase 3 activation at 0.5 uM preincubated for 1 hr measured after 8 hrs by Western blot method in absence of light; format: cell-based; conditions: l1210, 8 h
# [26] = Octanol-water partition coefficient, logP of the compound; format: physicochemical
# [27] = test system: L1210; test: Induction of cytomorphological changes in mouse L1210 cells assessed as condensed chromatin at 0.5 uM preincubated for 1 hr followed by 1.05 J/cm2 UV-A irradiation measured after 6 to 24 hrs by Hoechst 33342 staining-based fluorescence microscopy; format: functional, cell-based
compound,measurement,setting,value
CCCNC(=S)Nc1ccc2cc3ccc(NC(=S)NCCC)cc3nc2c1.Cl,Activity,[1],Active
same,Activity,[2],inactive
same,Activity,[3],24%
same,Drug uptake,[4],Not Active
same,Activity,[5],17.2%
same,Activity,[6],Non-toxic
same,Activity,[7],47.9%
same,Activity,[8],Active
same,Drug uptake,[9],Active
same,Activity,[10],Active
same,Activity,[11],inactive
same,Activity,[12],Non-toxic
same,Activity,[13],inactive
same,K,[14],6.8 ×10⁵ /M
same,Drug uptake,[15],Not Active
same,Activity,[16],Non-toxic
same,Activity,[17],25.9%
same,Activity,[18],inactive
same,Activity,[19],24%
same,Activity,[20],Non-toxic
same,IC50,[21],480 nM
same,Activity,[22],inactive
same,Activity,[23],22.5%
same,Activity,[24],inactive
same,Activity,[25],Non-toxic
same,logP,[26],1.28
same,Activity,[27],Active
